Results as given in US20100087523A1, “Rupestonic acid derivatives and use thereof” (priority 2008, published 2010).
Like-named read-outs stand apart in the source and are kept apart here.

Tests used:
[1] = tested on: MDCK (Madin-darby canine kidney) cells; conditions: read-out: TC50 (toxic concentration 50%); host cells of the anti-flu virus test
[2] = tested on: B-type flu virus (jifang/97-13); conditions: read-out: Activity for inhibiting B-type flu viruses IC50
[3] = tested on: A-type flu virus (jifang/90-15)
[4] = tested on: A-type flu virus (jifang/90-15); assay: organism not typed; conditions: MDCK, 36 h, read-out: Activity for inhibiting A-type flu viruses IC50
in vitro = conditions: dog
[5] = tested on: B-type flu virus (jifang/97-13); assay: organism not typed; conditions: MDCK, 36 h, read-out: Activity for inhibiting B-type flu viruses IC50
[6] = read-out: IC50, inhibit A-type flu virus
[7] = read-out: Activity for inhibiting A-type flu viruses IC50

In the case of `C=C(C(=O)O)[C@H]1CC[C@H](C)[C@@H]2CC(=O)C(C)=C2C1` [Compound 1, rupestonic acid], the CC50 [1] is reported as 1040 µM and the IC50 [2] is reported as 116 µM.

Compound `C=C(C(=O)Oc1ccc(Cl)cc1)C1CCC(C)C2CC(=O)C(C)=C2C1` (centres unmarked) [B-2, Rupestonic (p-chlorophenyl)-ester] has a CC50 [1] of 240 µM and an IC50 [3, 6] of 19.1 µM.

For `CCOC(=O)C1=C[C@@H](OC(CC)CC)[C@H](NC(C)=O)[C@@H](N)C1` [Oseltamivir], the IC50 [4] was 5.1 µM and the CC50 (in vitro) was > 1220 µM.

For `C=C(C(=O)Oc1ccc(C)cc1)C1CCC(C)C2CC(=O)C(C)=C2C1` (centres unmarked) [B-9, Rupestonic (p-methylphenyl)-ester], the CC50 [1] was 191 µM and the IC50 [3, 6] was 13.4 µM.

In the case of `C=C(C(=O)OCc1ccccc1Br)C1CCC(C)C2CC(=O)C(C)=C2C1` (centres unmarked) [B-17, Rupestonic (o-bromobenzyl)-ester], the CC50 [1] is reported as 57.3 µM, the IC50 [2] is reported as 25.7 µM and the IC50 [3, 7] is reported as 15.2 µM.

`C=C(C(=O)OCc1ccc([N+](=O)[O-])cc1)C1CCC(C)C2CC(=O)C(C)=C2C1` (centres unmarked) [B-15, Rupestonic (p-nitryl-benzyl)-ester] showed a CC50 [1] of 25 µM, an IC50 [2] of 5.5 µM and an IC50 [3, 7] of 5.5 µM.

`NC(=O)c1ncn([C@@H]2O[C@H](CO)[C@@H](O)[C@H]2O)n1` [Ribavirin] gave an IC50 [4] of 1.6 µM, a CC50 (in vitro) of 1570 µM and an IC50 [5] of 11.9 µM.

With `C=C(C(=O)OCc1ccc(Cl)cc1)C1CCC(C)C2CC(=O)C(C)=C2C1` (centres unmarked) [B-14, Rupestonic (p-chlorobenzyl)-ester] the CC50 [1] was 47.7 µM, the IC50 [2] was 19.1 µM and the IC50 [3, 7] was 12.5 µM.

Work on `C=C(C(=O)OCC)C1CCC(C)C2CC(=O)C(C)=C2C1` (centres unmarked) [B-1, Ethyl Rupestonic ester] yielded a CC50 [1] of 194 µM, an IC50 [2] of 50.9 µM and an IC50 [3, 7] of 39.1 µM.

`C=C(C(=O)Nc1ccc(Cl)cc1)C1CCC(C)C2CC(=O)C(C)=C2C1` (centres unmarked) [A-2, N(4-chloro-phenyl)-Rupestonic amide] showed a CC50 [1] of 121 µM, an IC50 [2] of 29.9 µM and an IC50 [3, 7] of 19.2 µM.

For `C=C(C(=O)Nc1ccccc1Br)C1CCC(C)C2CC(=O)C(C)=C2C1` (centres unmarked) [A-5, N(2-bromo-phenyl)-Rupestonic amide], the CC50 [1] was 160 µM and the IC50 [3, 7] was 49 µM.

`C=C(C(=O)Oc1ccc(Br)cc1)C1CCC(C)C2CC(=O)C(C)=C2C1` (centres unmarked) [B-4, Rupestonic (p-bromophenyl)-ester] gave a CC50 [1] of 44.2 µM and an IC50 [3, 7] of 10.2 µM.

In the case of `C=C(C(=O)Oc1ccccc1Cl)C1CCC(C)C2CC(=O)C(C)=C2C1` (centres unmarked) [B-3, Rupestonic (o-chlorophenyl)-ester], the CC50 [1] is reported as 49.7 µM and the IC50 [3, 7] is reported as 11.5 µM.
